Test results published in ChEMBL document CHEMBL1201862, “PubChem BioAssay data set” (2004).
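Assay format: 96-well plates, 48-hour exposure. GI50 is the concentration that inhibits growth by half.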 Activity calls are given as the source filed them. Cut-off read from the data, not from the text of the source: active = GI50 up to about 1.1 µM and inactive = higher.

Key:
Test in all cases: growth of human tumour cells (NCI), 48 h
[1] = system: CCRF-CEM
[2] = system: NCI-H23
[3] = system: SF-539
[4] = system: MCF7
[5] = system: SK-MEL-2
[6] = system: NCI-H522
[7] = system: Hs-578T
[8] = system: HOP-92
[9] = system: HOP-62
[10] = system: COLO 205
[11] = system: OVCAR-5
[12] = system: KM12
[13] = system: NCI-H226
[14] = system: 786-0
[15] = system: BT-549
[16] = system: MDA-N
[17] = system: NCI/ADR-RES
[18] = system: ACHN
[19] = system: MDA-MB-435
[20] = system: K562
[21] = system: RXF 393
[22] = system: MDA-MB-231
[23] = system: Malme-3M
[24] = system: SR
[25] = system: PC-3
[26] = system: MOLT-4
[27] = system: SF-295
[28] = system: M14
[29] = system: SK-OV-3
[30] = system: TK-10
[31] = system: SW-620
[32] = system: CAKI-1
[33] = system: IGROV-1
[34] = system: A498
[35] = system: HT-29
[36] = system: A549
[37] = system: EKVX
[38] = system: UACC-257
[39] = system: T47D
[40] = system: RPMI-8226
[41] = system: HCT-15
[42] = system: SNB-75
[43] = system: SK-MEL-5
[44] = system: HCT-116
[45] = system: HL-60
[46] = system: DU-145
[47] = system: SK-MEL-28
[48] = system: UACC-62
[49] = system: UO-31
[50] = system: U-251
[51] = system: LOX IMVI
[52] = system: OVCAR-3
[53] = system: SN12C
[54] = system: OVCAR-8
[55] = system: SNB-19
[56] = system: NCI-H460
[57] = system: SF-268
[58] = system: OVCAR-4
[59] = system: HCC 2998

Measured: GI50

NC1=NC2(COC(c3ccccc3)(c3ccccc3)c3ccccc3)OC(COC(c3ccccc3)(c3ccccc3)c3ccccc3)C(O)C2O1 (stereo not drawn)
inactive: [1] 21.3 µM | [2] 23.1 µM | [3] 71.6 µM | [4] > 100 µM | [5] 5.77 µM | [6] 52.5 µM | [8] 15.2 µM | [9] > 100 µM | [10] 67.1 µM | [11] 81.7 µM | [12] 21.6 µM | [13] 24.2 µM | [14] > 100 µM | [15] 41.3 µM | [16] 85.1 µM | [17] 21.1 µM | [18] 88.3 µM | [19] 65.8 µM | [20] 21.8 µM | [21] 66.5 µM | [22] 67.1 µM | [23] 18.4 µM | [24] 32.9 µM | [25] 11.2 µM | [26] 13.2 µM | [27] 46.5 µM | [28] > 100 µM | [29] > 100 µM | [30] 18.9 µM | [31] > 100 µM | [32] > 100 µM | [33] 21.8 µM | [34] > 100 µM | [35] 65 µM | [36] 25.1 µM | [37] 16.4 µM | [38] 51.2 µM | [39] 53.1 µM | [40] 16.6 µM | [43] 26.1 µM | [44] 38.3 µM | [45] 8.59 µM | [46] > 100 µM | [47] > 100 µM | [48] 27.6 µM | [49] 13.4 µM | [50] > 100 µM | [51] > 100 µM | [52] > 100 µM | [53] > 100 µM | [54] 5.98 µM | [55] 23 µM
active: [7] 0.258 µM | [42] < 10 nM
> 100 µM: [41]

C=CCSC1=N/C(=C\c2cccs2)C(=O)N1CC=C
inactive: [2] 94.8 µM | [3] > 100 µM | [4] 27.3 µM | [5] > 100 µM | [6] 49.4 µM | [7] > 100 µM | [8] 12.9 µM | [9] > 100 µM | [10] 56.2 µM | [11] > 100 µM | [12] 40 µM | [13] 44.2 µM | [14] 45.4 µM | [15] 44.4 µM | [16] 42.9 µM | [17] 75.2 µM | [18] 54.6 µM | [19] 60.3 µM | [20] 29.4 µM | [21] 16.7 µM | [22] 83.4 µM | [23] > 100 µM | [24] 32.5 µM | [25] 33.7 µM | [26] 18.7 µM | [27] 81.5 µM | [56] 61.9 µM | [28] 54.5 µM | [57] > 100 µM | [29] > 100 µM | [30] > 100 µM | [31] 82.2 µM | [32] > 100 µM | [33] > 100 µM | [34] 26.4 µM | [35] 32.8 µM | [36] 33.7 µM | [37] 19.2 µM | [38] 49.8 µM | [39] 15.4 µM | [58] 38.6 µM | [40] 21.9 µM | [43] 32.3 µM | [44] 32.7 µM | [46] 79.3 µM | [47] > 100 µM | [48] 63.2 µM | [49] 37.4 µM | [50] 61.5 µM | [51] 46.1 µM | [52] > 100 µM | [53] 53.1 µM | [54] 44.6 µM | [59] 58.9 µM | [55] > 100 µM
66.1 µM: [41]

CN(C)CCCN1c2ccccc2CCc2cc([N+](=O)[O-])ccc21
inactive: [2] 26.5 µM | [3] 24.1 µM | [4] 27.3 µM | [5] 21.1 µM | [6] 24.5 µM | [7] 31.8 µM | [9] 21.8 µM | [10] 21 µM | [11] 25.5 µM | [12] 26.4 µM | [13] 24 µM | [14] 24.5 µM | [15] 22.4 µM | [16] 19.6 µM | [17] 26.9 µM | [18] 29.4 µM | [19] 21.6 µM | [20] 27.2 µM | [21] 14.2 µM | [22] 22.2 µM | [23] 18.8 µM | [24] 32.1 µM | [25] 25.4 µM | [26] 26.2 µM | [27] 18.9 µM | [56] 20 µM | [28] 18.9 µM | [57] 20 µM | [30] 28.5 µM | [32] 26.8 µM | [33] 20.3 µM | [34] 25.5 µM | [35] 21.4 µM | [36] 24.6 µM | [37] 33.9 µM | [38] 20.1 µM | [39] 18.7 µM | [58] 24.4 µM | [40] 21.5 µM | [43] 15.8 µM | [44] 20.5 µM | [46] 24.4 µM | [48] 14.5 µM | [49] 22.2 µM | [50] 26.3 µM | [51] 19.1 µM | [52] 20 µM | [53] 22.9 µM | [54] 24.6 µM | [59] 17.7 µM | [55] 28.6 µM
34.4 µM: [41]
